Laboratory results as given in PubChem BioAssay AID248 (DTP/NCI, 2004).
Values joined by “and” are separate entries in the source; they are usually repeats but may differ in a detail not shown here. Equal entries are not always repeated. Toxic doses and inconclusive results are not listed.

System: L1210 leukemia ip in BDF1 mice, survival T/C
Test: NCI In Vivo Anticancer Drug Screen. Data for tumor model L1210 Leukemia (intraperitoneal) in B6D2F1 (BDF1) mice
Details: endpoint: mean survival time, higher = longer survival
In short: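 Tumor was transplanted into mice, which were then dosed with test compound or vehicle alone. Survival was recorded for each group, and the treated figure was expressed relative to the control figure.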

[1] = dose: 100.0 mg/kg/injection, schedule: Q01DX009 (ip), vehicle: saline
[2] = dose: 200.0 mg/kg/injection, schedule: Q01DX009 (ip), vehicle: saline
[3] = dose: 400.0 mg/kg/injection, schedule: Q01DX009 (ip), vehicle: saline
[4] = dose: 100.0 mg/kg/injection, schedule: Q04DX003 (ip), vehicle: saline
[5] = dose: 200.0 mg/kg/injection, schedule: Q04DX003 (ip), vehicle: saline
[6] = dose: 100.0 mg/kg/injection, schedule: Q01DX009 (ip), vehicle: saline with Tween-80
[7] = dose: 100.0 mg/kg/injection, schedule: Q04DX002 (ip), vehicle: other
[8] = dose: 200.0 mg/kg/injection, schedule: Q01DX009 (ip), vehicle: saline with Tween-80
[9] = dose: 200.0 mg/kg/injection, schedule: Q04DX002 (ip), vehicle: other
[10] = dose: 400.0 mg/kg/injection, schedule: Q04DX002 (ip), vehicle: other
[11] = dose: 50.0 mg/kg/injection, schedule: Q01DX009 (ip), vehicle: Klucel (hydroxypropylcellulose) (HPC)
[12] = dose: 100.0 mg/kg/injection, schedule: Q01DX009 (ip), vehicle: Klucel (hydroxypropylcellulose) (HPC)
[13] = dose: 100.0 mg/kg/injection, schedule: Q04DX003 (ip), vehicle: Klucel (hydroxypropylcellulose) (HPC)
[14] = dose: 200.0 mg/kg/injection, schedule: Q01DX009 (ip), vehicle: Klucel (hydroxypropylcellulose) (HPC)
[15] = dose: 200.0 mg/kg/injection, schedule: Q04DX003 (ip), vehicle: Klucel (hydroxypropylcellulose) (HPC)
[16] = dose: 100.0 mg/kg/injection, schedule: Q01DX001 (ip), vehicle: saline
[17] = dose: 200.0 mg/kg/injection, schedule: Q01DX001 (ip), vehicle: saline
[18] = dose: 400.0 mg/kg/injection, schedule: Q01DX001 (ip), vehicle: saline
[19] = dose: 100.0 mg/kg/injection, schedule: Q01DX001 (ip), vehicle: Klucel (hydroxypropylcellulose) (HPC)
[20] = dose: 200.0 mg/kg/injection, schedule: Q01DX001 (ip), vehicle: Klucel (hydroxypropylcellulose) (HPC)
[21] = dose: 400.0 mg/kg/injection, schedule: Q01DX001 (ip), vehicle: Klucel (hydroxypropylcellulose) (HPC)
[22] = dose: 400.0 mg/kg/injection, schedule: Q04DX003 (ip), vehicle: Klucel (hydroxypropylcellulose) (HPC)
[23] = dose: 100.0 mg/kg/injection, schedule: Q04DX003 (ip), vehicle: saline with Tween-80
[24] = dose: 200.0 mg/kg/injection, schedule: Q04DX003 (ip), vehicle: saline with Tween-80
[25] = dose: 400.0 mg/kg/injection, schedule: Q04DX003 (ip), vehicle: saline with Tween-80

O=C1OC(c2ccc([N+](=O)[O-])cc2)=N/C1=C\c1ccc(Cl)cc1
T/C [1]: 94 % of control | T/C (dose: 100.0 mg/kg/injection, schedule: Q04DX002 (ip), vehicle: saline): 89 % of control | T/C [2]: 91 % of control | T/C (dose: 200.0 mg/kg/injection, schedule: Q04DX002 (ip), vehicle: saline): 92 % of control | T/C [3]: 91 % of control | T/C (dose: 400.0 mg/kg/injection, schedule: Q04DX002 (ip), vehicle: saline): 92 % of control

CN(C)/N=C\c1cccnc1
T/C [4]: 112 % of control | T/C [5]: 86 % of control

Nc1ccc(Cl)cc1N
T/C (dose: 90.0 mg/kg/injection, schedule: Q01DX001 (ip), vehicle: other): 100 % of control | T/C (dose: 90.0 mg/kg/injection, schedule: Q04DX003 (ip), vehicle: other): 97 % of control | T/C [6]: 104 % of control | T/C [7]: 107 % of control | T/C (dose: 175.0 mg/kg/injection, schedule: Q01DX001 (ip), vehicle: other): 105 % of control | T/C (dose: 175.0 mg/kg/injection, schedule: Q01DX009 (ip), vehicle: other): 111 % of control | T/C (dose: 175.0 mg/kg/injection, schedule: Q04DX003 (ip), vehicle: other): 100 % of control | T/C [8]: 114 % of control | T/C [9]: 107 % of control | T/C (dose: 265.0 mg/kg/injection, schedule: Q01DX001 (ip), vehicle: other): 99 % of control | T/C (dose: 265.0 mg/kg/injection, schedule: Q01DX009 (ip), vehicle: other): 151 % of control | T/C (dose: 265.0 mg/kg/injection, schedule: Q04DX003 (ip), vehicle: other): 106 % of control | T/C (dose: 400.0 mg/kg/injection, schedule: Q01DX001 (ip), vehicle: other): 110 % of control | T/C [10]: 114 % of control | T/C (dose: 400.0 mg/kg/injection, schedule: Q04DX003 (ip), vehicle: other): 104 % of control

COc1cc(C(C)=O)ccc1OS(C)(=O)=O
T/C (dose: 20.0 mg/kg/injection, schedule: Q01DX009 (ip), vehicle: Klucel (hydroxypropylcellulose) (HPC)): 100 % of control | T/C (dose: 20.0 mg/kg/injection, schedule: Q04DX003 (ip), vehicle: Klucel (hydroxypropylcellulose) (HPC)): 106 % of control | T/C (dose: 40.0 mg/kg/injection, schedule: Q01DX009 (ip), vehicle: Klucel (hydroxypropylcellulose) (HPC)): 98 % of control | T/C (dose: 40.0 mg/kg/injection, schedule: Q04DX003 (ip), vehicle: Klucel (hydroxypropylcellulose) (HPC)): 93 % of control | T/C (dose: 80.0 mg/kg/injection, schedule: Q01DX009 (ip), vehicle: Klucel (hydroxypropylcellulose) (HPC)): 96 % of control | T/C (dose: 80.0 mg/kg/injection, schedule: Q04DX003 (ip), vehicle: Klucel (hydroxypropylcellulose) (HPC)): 98 % of control

Cc1cc(=O)[nH]c(N/N=C/C(C)C)n1
T/C [11]: 95 % of control | T/C [12]: 95 % of control | T/C [13]: 95 % of control | T/C [14]: 93 % of control | T/C [15]: 89 % of control

O=C(C#Cc1ccccc1)OCC#Cc1ccccc1
T/C [16]: 102 % of control | T/C [17]: 96 % of control | T/C [18]: 94 % of control

Cc1cc(=O)[nH]c2nc3ccccc3n12
T/C [19]: 108 % of control | T/C [13]: 96 % of control | T/C [20]: 95 % of control | T/C [15]: 96 % of control | T/C [21]: 111 % of control | T/C [22]: 104 % of control

O=[N+]([O-])c1ccc(N=C(Cl)N(c2ccccc2)c2ccccc2)cc1
T/C [16]: 101 % of control | T/C [17]: 109 % of control | T/C [18]: 109 % of control

O=C(NC(CS)C(=O)O)OCc1ccccc1 (stereo unspecified)
T/C (dose: 25.0 mg/kg/injection, schedule: Q04DX003 (ip), vehicle: Klucel (hydroxypropylcellulose) (HPC)): 97 % of control | T/C [11]: 101 % of control | T/C (dose: 50.0 mg/kg/injection, schedule: Q04DX003 (ip), vehicle: Klucel (hydroxypropylcellulose) (HPC)): 98 % of control | T/C [12]: 101 % of control | T/C [13]: 106 % of control and 113 % of control | T/C [14]: 98 % of control

Cc1ccc(S(=O)(=O)OCC(OS(=O)(=O)c2ccc(C)cc2)C2OCOC(COS(=O)(=O)c3ccc(C)cc3)C2OS(=O)(=O)c2ccc(C)cc2)cc1 (stereo unspecified)
T/C [23]: 94 % of control | T/C [24]: 87 % of control | T/C [25]: 100 % of control

c1ccc2c(c1)CC([CH2][Hg][CH2]C1Cc3ccccc3O1)O2 (stereo unspecified)
T/C (dose: 100.0 mg/kg/injection, schedule: Q01DX001 (ip), vehicle: carboxymethylcellulose (CMC)): 101 % of control | T/C (dose: 200.0 mg/kg/injection, schedule: Q01DX001 (ip), vehicle: carboxymethylcellulose (CMC)): 95 % of control

C1CCC(C2OCCO2)CC1
T/C [1]: 98 % of control | T/C [4]: 97 % of control | T/C [2]: 118 % of control | T/C [5]: 94 % of control | T/C [3]: 88 % of control | T/C (dose: 400.0 mg/kg/injection, schedule: Q04DX003 (ip), vehicle: saline): 92 % of control

CC(C)N1C(=O)OC2(CCN(CCCSc3ccc(F)cc3)CC2)C1=O
T/C [13]: 103 % of control | T/C [15]: 103 % of control | T/C [22]: 103 % of control

c1ccc(CCc2ccncc2)cc1
T/C [6]: 87 % of control | T/C [8]: 88 % of control | T/C (dose: 400.0 mg/kg/injection, schedule: Q01DX009 (ip), vehicle: saline with Tween-80): 86 % of control

CCOC1C(Br)=Cc2ccccc2N1C(=O)OC (stereo unspecified)
T/C [19]: 101 % of control | T/C [20]: 97 % of control | T/C [21]: 101 % of control

CC(=O)N(CCN(C)C)Cc1ccccc1
T/C [16]: 98 % of control | T/C [17]: 98 % of control

CC(=O)Nc1ccc(N=Cc2ccc([N+](=O)[O-])s2)cc1
T/C [23]: 100 % of control | T/C [24]: 96 % of control | T/C [25]: 98 % of control

CCOC(=O)C(N)CCSSCCC(N)C(=O)OCC (stereo unspecified)
T/C (dose: 177.0 mg/kg/injection, schedule: Q01DX001 (ip), vehicle: saline): 92 % of control | T/C (dose: 267.0 mg/kg/injection, schedule: Q01DX001 (ip), vehicle: saline): 92 % of control | T/C [18]: 95 % of control | T/C (dose: 600.0 mg/kg/injection, schedule: Q01DX001 (ip), vehicle: saline): 104 % of control

O=C(CCc1ccc(O)cc1)c1c(O)cc(O)cc1O
T/C [16]: 96 % of control | T/C [17]: 94 % of control | T/C [18]: 92 % of control

C#CCSC(=S)OCC
T/C (dose: 100.0 mg/kg/injection, schedule: Q04DX003 (ip), vehicle: other): 95 % of control | T/C (dose: 200.0 mg/kg/injection, schedule: Q04DX003 (ip), vehicle: other): 101 % of control

CCCCCCC(=O)C(O)C(O)C(=O)CCCCCCCC(=O)O (stereo unspecified)
T/C [7]: 91 % of control | T/C [9]: 98 % of control | T/C [10]: 102 % of control

Cc1cc(=O)oc2cc(O)ccc12
T/C [13]: 100 % of control | T/C [15]: 98 % of control
